Literature values as cited in patent US20200230059A1, “Solid Micronized Melatonin Composition” (Physician's Seal, LLC, priority 2019, published 2020).
Read-outs that look alike come from different tables or passages of the source.

solubility (gastric environment, pH approximately 1 to 3): relatively high
solubility (lower GI tract environment, pH approximately 5.5 to 7): decreases even further
solubility (upper GI tract environment, pH approximately 4.5 to 5.5): decreases
Structure (SMILES): COc1ccc2[nH]cc(CCNC(C)=O)c2c1 [Melatonin]
